In article PMC2864793 (Molecular cell, 2010):

How the values were obtained:
[1] = molecular target: IRE1 (Saccharomyces cerevisiae, UniProt P32361); test: co-crystal structure with quercetin; format: biochemical
[2] = molecular target: T1, IRE1 (Saccharomyces cerevisiae, UniProt P32361, K985A); test: RNase activation assay and DSS crosslinking at […] ADP; format: biochemical
T1 sequence (P32361 658-1115 K985A): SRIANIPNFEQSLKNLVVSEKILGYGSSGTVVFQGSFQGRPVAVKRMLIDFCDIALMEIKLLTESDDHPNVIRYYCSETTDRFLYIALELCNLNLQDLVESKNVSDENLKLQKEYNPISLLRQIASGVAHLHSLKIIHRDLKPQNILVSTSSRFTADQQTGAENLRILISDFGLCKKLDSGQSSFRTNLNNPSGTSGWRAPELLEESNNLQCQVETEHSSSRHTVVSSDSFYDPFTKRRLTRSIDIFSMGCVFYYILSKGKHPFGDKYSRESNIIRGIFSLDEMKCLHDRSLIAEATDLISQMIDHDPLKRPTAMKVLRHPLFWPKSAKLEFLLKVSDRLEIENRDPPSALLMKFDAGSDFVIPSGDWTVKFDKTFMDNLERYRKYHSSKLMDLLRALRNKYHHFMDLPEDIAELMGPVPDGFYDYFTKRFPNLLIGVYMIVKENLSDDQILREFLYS

[3] = molecular target: T2, IRE1 (Saccharomyces cerevisiae, UniProt P32361, D797A); test: fluorescent RNase activation assay at […]; format: biochemical
T2 sequence (P32361 658-1115 D797A): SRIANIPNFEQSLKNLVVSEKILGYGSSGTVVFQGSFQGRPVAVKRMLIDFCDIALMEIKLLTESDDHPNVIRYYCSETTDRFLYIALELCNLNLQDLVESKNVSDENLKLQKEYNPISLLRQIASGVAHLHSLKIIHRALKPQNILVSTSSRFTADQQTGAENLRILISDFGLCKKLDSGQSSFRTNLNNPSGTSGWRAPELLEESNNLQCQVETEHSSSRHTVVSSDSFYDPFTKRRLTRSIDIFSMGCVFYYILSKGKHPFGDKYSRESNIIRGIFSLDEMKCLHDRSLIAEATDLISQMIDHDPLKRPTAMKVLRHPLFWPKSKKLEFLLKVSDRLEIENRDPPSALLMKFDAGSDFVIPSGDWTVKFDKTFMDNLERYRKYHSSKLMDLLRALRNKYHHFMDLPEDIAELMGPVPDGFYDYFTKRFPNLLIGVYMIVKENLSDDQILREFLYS

[4] = molecular target: the molecule itself; test: cross-linking
[5] = molecular target: the molecule itself; test: AUC

`Nc1ncnc2c1ncn2[C@@H]1O[C@H](COP(=O)(O)OP(=O)(O)O)[C@@H](O)[C@H]1O` [ADP] was tested, and the EC50 [1] was roughly 40 µM and the “RNase activation assay and DSS crosslinking at 2 mM ADP” value [2] was “abolished by the Q-site mutant IRE1^K985A, although ADP-dependent crosslinking was still observed”.

`O=c1c(O)c(-c2ccc(O)c(O)c2)oc2cc(O)cc(O)c12` [quercetin] was tested, and the “fluorescent RNase activation assay at 25 μM” value [3] was “addition of quercetin substantially activates its RNase (Figure 7C). Such activation was Q-site dependent”.

B1: IRE1^K985A (Q-site mutant of yeast IRE1 658–1115) (domain or fragment, UniProt P32361 658-1115, looked up)
chain: SRIANIPNFEQSLKNLVVSEKILGYGSSGTVVFQGSFQGRPVAVKRMLIDFCDIALMEIKLLTESDDHPNVIRYYCSETTDRFLYIALELCNLNLQDLVESKNVSDENLKLQKEYNPISLLRQIASGVAHLHSLKIIHRDLKPQNILVSTSSRFTADQQTGAENLRILISDFGLCKKLDSGQSSFRTNLNNPSGTSGWRAPELLEESNNLQCQVETEHSSSRHTVVSSDSFYDPFTKRRLTRSIDIFSMGCVFYYILSKGKHPFGDKYSRESNIIRGIFSLDEMKCLHDRSLIAEATDLISQMIDHDPLKRPTAMKVLRHPLFWPKSAKLEFLLKVSDRLEIENRDPPSALLMKFDAGSDFVIPSGDWTVKFDKTFMDNLERYRKYHSSKLMDLLRALRNKYHHFMDLPEDIAELMGPVPDGFYDYFTKRFPNLLIGVYMIVKENLSDDQILREFLYS
modifications: purified as a phosphorylated protein (sites not given)
B1: binds [4].

B2: cytosolic portion of yeast IRE1 (residues 658–1115; inclusive of both the kinase and KEN domains) (domain or fragment, UniProt P32361 658-1115, looked up)
chain: SRIANIPNFEQSLKNLVVSEKILGYGSSGTVVFQGSFQGRPVAVKRMLIDFCDIALMEIKLLTESDDHPNVIRYYCSETTDRFLYIALELCNLNLQDLVESKNVSDENLKLQKEYNPISLLRQIASGVAHLHSLKIIHRDLKPQNILVSTSSRFTADQQTGAENLRILISDFGLCKKLDSGQSSFRTNLNNPSGTSGWRAPELLEESNNLQCQVETEHSSSRHTVVSSDSFYDPFTKRRLTRSIDIFSMGCVFYYILSKGKHPFGDKYSRESNIIRGIFSLDEMKCLHDRSLIAEATDLISQMIDHDPLKRPTAMKVLRHPLFWPKSKKLEFLLKVSDRLEIENRDPPSALLMKFDAGSDFVIPSGDWTVKFDKTFMDNLERYRKYHSSKLMDLLRALRNKYHHFMDLPEDIAELMGPVPDGFYDYFTKRFPNLLIGVYMIVKENLSDDQILREFLYS
modifications: phosphorylated when purified from bacteria (sites not given for this construct)
For B2, the “stoichiometry N” value [5] was 2.
